SMILES strings stand for the structures.

T1 sequence (Q5S007 whole entry G2019S): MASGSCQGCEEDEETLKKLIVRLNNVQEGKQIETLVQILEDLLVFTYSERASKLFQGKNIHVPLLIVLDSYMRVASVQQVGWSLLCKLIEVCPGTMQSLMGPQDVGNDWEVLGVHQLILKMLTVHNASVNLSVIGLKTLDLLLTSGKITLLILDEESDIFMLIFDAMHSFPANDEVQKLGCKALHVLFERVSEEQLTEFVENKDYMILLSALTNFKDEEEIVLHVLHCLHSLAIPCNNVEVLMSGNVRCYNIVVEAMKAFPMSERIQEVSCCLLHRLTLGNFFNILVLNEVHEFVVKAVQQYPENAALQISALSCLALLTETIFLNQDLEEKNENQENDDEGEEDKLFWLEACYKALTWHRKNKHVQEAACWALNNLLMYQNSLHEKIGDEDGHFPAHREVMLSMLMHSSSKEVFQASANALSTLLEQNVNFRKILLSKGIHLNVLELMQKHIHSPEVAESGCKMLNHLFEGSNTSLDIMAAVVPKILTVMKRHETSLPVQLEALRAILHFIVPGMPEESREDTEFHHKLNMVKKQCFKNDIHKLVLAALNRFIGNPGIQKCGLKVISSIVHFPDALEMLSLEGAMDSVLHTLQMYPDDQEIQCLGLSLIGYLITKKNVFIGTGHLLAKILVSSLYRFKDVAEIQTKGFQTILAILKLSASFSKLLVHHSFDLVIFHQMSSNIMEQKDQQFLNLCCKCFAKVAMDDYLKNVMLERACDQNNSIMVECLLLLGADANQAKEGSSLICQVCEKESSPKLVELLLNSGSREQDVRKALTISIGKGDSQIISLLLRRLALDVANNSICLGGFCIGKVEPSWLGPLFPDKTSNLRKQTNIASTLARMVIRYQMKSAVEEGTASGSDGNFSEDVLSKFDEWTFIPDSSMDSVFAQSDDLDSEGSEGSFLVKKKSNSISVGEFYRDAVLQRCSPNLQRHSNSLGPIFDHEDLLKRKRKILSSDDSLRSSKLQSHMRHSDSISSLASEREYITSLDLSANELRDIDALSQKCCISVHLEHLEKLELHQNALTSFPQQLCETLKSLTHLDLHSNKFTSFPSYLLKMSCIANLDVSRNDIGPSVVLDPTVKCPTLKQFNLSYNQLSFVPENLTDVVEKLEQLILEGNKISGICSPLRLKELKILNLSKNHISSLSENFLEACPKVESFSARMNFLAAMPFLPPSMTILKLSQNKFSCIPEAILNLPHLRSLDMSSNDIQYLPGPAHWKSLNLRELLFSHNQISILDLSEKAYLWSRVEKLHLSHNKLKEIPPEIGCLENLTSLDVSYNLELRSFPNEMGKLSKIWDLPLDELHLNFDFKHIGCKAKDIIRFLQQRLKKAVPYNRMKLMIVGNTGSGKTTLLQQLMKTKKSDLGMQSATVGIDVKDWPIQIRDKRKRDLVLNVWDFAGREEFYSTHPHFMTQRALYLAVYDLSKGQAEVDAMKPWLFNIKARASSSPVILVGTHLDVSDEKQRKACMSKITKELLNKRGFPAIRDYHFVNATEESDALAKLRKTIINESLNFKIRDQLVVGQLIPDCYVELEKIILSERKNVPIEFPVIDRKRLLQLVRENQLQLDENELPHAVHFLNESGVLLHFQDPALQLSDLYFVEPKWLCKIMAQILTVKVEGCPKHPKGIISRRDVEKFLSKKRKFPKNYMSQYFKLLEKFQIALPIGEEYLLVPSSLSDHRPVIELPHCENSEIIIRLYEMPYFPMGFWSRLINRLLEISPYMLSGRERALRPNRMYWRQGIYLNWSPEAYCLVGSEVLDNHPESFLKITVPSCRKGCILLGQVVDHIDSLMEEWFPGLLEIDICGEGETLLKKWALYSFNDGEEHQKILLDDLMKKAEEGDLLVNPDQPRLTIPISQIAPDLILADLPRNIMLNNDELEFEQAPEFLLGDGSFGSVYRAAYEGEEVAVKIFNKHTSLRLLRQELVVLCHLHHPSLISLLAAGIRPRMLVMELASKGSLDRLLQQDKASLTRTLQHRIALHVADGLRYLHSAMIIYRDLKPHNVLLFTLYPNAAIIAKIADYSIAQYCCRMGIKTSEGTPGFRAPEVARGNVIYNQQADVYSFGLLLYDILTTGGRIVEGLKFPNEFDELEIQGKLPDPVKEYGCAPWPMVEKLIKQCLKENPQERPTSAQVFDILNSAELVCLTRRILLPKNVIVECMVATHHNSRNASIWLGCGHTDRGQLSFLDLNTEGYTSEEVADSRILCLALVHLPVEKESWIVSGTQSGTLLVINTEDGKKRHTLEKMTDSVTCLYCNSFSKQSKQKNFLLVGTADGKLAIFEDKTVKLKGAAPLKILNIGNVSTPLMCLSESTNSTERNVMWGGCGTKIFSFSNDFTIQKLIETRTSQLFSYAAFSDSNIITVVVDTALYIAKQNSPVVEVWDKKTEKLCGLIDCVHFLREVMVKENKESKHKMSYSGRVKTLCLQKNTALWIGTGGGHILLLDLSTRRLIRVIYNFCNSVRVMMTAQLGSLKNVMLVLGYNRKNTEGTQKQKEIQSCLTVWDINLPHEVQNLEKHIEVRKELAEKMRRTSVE

The test concerns the target T1, LRRK2 (Homo sapiens, UniProt Q5S007, G2019S).
T1 construct: purchased Invitrogen PV4882
As to the kind of experiment: In Vitro LRRK2 LabChip Assay (LRRK2 Ki). It is filed as biochemical. The following applies: Table 5 compounds (formula I). How it is done:
In Vitro LRRK2 LabChip Assay
This assay was used to determine a compound's potency in inhibiting activity of LRRK2 by determining, Kiapp, IC50, or percent inhibition values. In a polypropylene plate, LRRK2, fluorescently-labeled peptide substrate, ATP and test compound were incubated together. Using a LabChip 3000 (Caliper Life Sciences), after the reaction the substrate was separated by capillary electrophoresis into two populations: phosphorylated and unphosphorylated. The relative amounts of each were quantitated by fluorescence intensity. LRRK2 Ki was determined according to the equation: Y=V0*(1−((x+Ki*(1+S/Km)+Et)/(2*Et)−(((x+Ki*(1+S/Km)+Et)^2−(4*Et*x))^0.5)/(2*Et))). Ki values in Table 4 and elsewhere herein are shown in μM.
Assay conditions and materials used were as follows:
LRRK2 Wild type in 5 mM MgCl2: 15 nM (Invitrogen lot #500607F)
Kinase reaction time: 2 hours
Wild type in 5 mM MgCl2: 80 μM
Solid Support: Black 50 μL volume polypropylene 384 well plate (MatriCal cat # MP101-1-PP)
Kinase: LRRK2 G2019S (Invitrogen cat #PV4882). • LRRK2 Wild type (Invitrogen cat #PV4874).
Substrate: 5FAM-[…]-CONH2
Non-binding plate: 384 well clear V-bottom polypropylene plates (Greiner cat #781280).
ATP: 10 mM ATP (Cell Signaling cat #9804).
Coating Reagent #3: Coating Reagent #3 (Caliper).
Complete Reaction Buffer: H2O/25 mM Tris, pH 8.0/5 mM MgCl2/2 mM DTT/0.01% Triton X-100.
Stop Solution: H2O/100 mM HEPES, pH 7.2/0.015% Brij-35/0.2% Coating Reagent #3/20 mM EDTA.
Separation Buffer: H2O/100 mM HEPES, pH 7.2/0.015% Brij-35/0.1% Coating Reagent #3/1:200 Coating Reagent #8/10 mM EDTA/5% DMSO.
Compound Plate Preparation:
For serial dilutions, 34.6 μl DMSO was added to columns 3-24. For the assay controls, 37.5 μl DMSO was added to columns 1 and 2 of rows A and P. a, d and 50 μl 25 μM G-028831 (Staurosporine) was added to columns 1 and 2, row B. For the samples: to start at 100 μM, 37.5 μl DMSO was to columns 1 and 2, then 12.5 μl 10 mM compound; to start at 10 μM, 78 μl DMSO was added to columns 1 & 2, then 2 μl 10 mM compound; and to start at 1 μM, 25 μM compound (2 μl 10 mM cmpd+798 μl DMSO) was added to empty columns 1 and 2. A Precision instrument was used to perform 1:3.16 serial dilutions (“PLK_BM_serial_halflog”).
ATP was diluted to 282.1 μM in Complete Kinase Buffer (final concentration was 130 μM).
Total and Blank Preparation:
In Complete Reaction Buffer, substrate was diluted to 4 μM. Equal volumes of Complete Reaction Buffer and 4 μM substrate were combined to obtain the blank. Equal volumes of Complete Reaction Buffer and 4 μM substrate were combined and to the combined solution was added 2× final LRRK2 concentration.
To a 50 μl polypropylene plate, 5 μl/well buffer/substrate was added by hand to Blank wells. A Biomek FX was used to start the kinase reaction (“PLK SAR 23 ATP”). The following were added to the appropriate wells:
5 μl/well compound/ATP in Assay Plate;
5 μl/well kinase/substrate in Assay Plate;
The plate was incubated for 2 hours in the dark. Biomek FX was used to stop the kinase reaction (“PLK Stop”), and 10 μl/well Stop solution was added to the Assay Plate. Results were read on the LabChip 3000.
The LabChip 3000 was run using the job “LRRK2 IC50” with the following job settings:
Downstream voltage: −500 V
Upstream voltage: −2350 V
Post sample buffer sip time: 75 seconds
Post dye buffer sip time: 75 seconds
Final delay time: 200 seconds
As to `CNc1nc(Nc2cc(OC)c(C(=O)N3CCC(F)(F)C3)cc2Cl)ncc1C(F)(F)F` [Compound 24, [5-Chloro-2-methoxy-4-(4-methylamino-5-trifluoromethyl-pyrimidin-2-ylamino)-phenyl]-(3,3-difluoro-pyrrolidin-1-yl)-methanone], the affinity corresponds to a Ki of 6.67 nM.
In the case of `COc1cc(C(=O)N2CCOCC2)c(F)cc1Nc1ncc(C(F)(F)F)c(NC2CC2)n1` [Compound 25, [4-(4-Cyclopropylamino-5-trifluoromethyl-pyrimidin-2-ylamino)-2-fluoro-5-methoxy-phenyl]-morpholin-4-yl-methanone] it was 0.507 nM; in that of `COc1cc(C(=O)N2CCOCC2)c(F)cc1Nc1ncc(C(F)(F)F)c(N2CCC2)n1` [Compound 26, [4-(4-Azetidin-1-yl-5-trifluoromethyl-pyrimidin-2-ylamino)-2-fluoro-5-methoxy-phenyl]-morpholin-4-yl-methanone], 31.5 nM.
In the case of `CNc1nc(Nc2cc(OC)c(C(=O)NCC(C)(C)O)cc2F)ncc1C(F)(F)F` [Compound 27, 5-Fluoro-N-(2-hydroxy-2-methyl-propyl)-2-methoxy-4-(4-methylamino-5-trifluoromethyl-pyrimidin-2-ylamino)-benzamide] it was 11.7 nM; in that of `CCNc1nc(Nc2cc(OC)c(C(=O)NCC(C)(C)O)cc2F)ncc1C(F)(F)F` [Compound 28, 4-(4-Ethylamino-5-trifluoromethyl-pyrimidin-2-ylamino)-5-fluoro-N-(2-hydroxy-2-methyl-propyl)-2-methoxy-benzamide], 6.42 nM.
For `CNc1nc(Nc2cc(OC)c(C(=O)N(C)CC(C)(C)O)cc2F)ncc1C(F)(F)F` [Compound 29, 5-Fluoro-N-(2-hydroxy-2-methyl-propyl)-2-methoxy-N-methyl-4-(4-methylamino-5-trifluoromethyl-pyrimidin-2-ylamino)-benzamide], the Ki (in general, the dissociation constant of the complex between target and ligand, obtained from inhibition or displacement) is 19.5 nM.
In the case of `CCNc1nc(Nc2cc(OC)c(C(=O)N(C)CC(C)(C)O)cc2F)ncc1C(F)(F)F` [Compound 30, 4-(4-Ethylamino-5-trifluoromethyl-pyrimidin-2-ylamino)-5-fluoro-N-(2-hydroxy-2-methyl-propyl)-2-methoxy-N-methyl-benzamide] it was 7.07 nM; in that of `CCNc1nc(Nc2cc(F)c(C(=O)N3CCOCC3)cc2F)ncc1C(F)(F)F` [Compound 31, [4-(4-Ethylamino-5-trifluoromethyl-pyrimidin-2-ylamino)-2,5-difluoro-phenyl]-morpholin-4-yl-methanone], 9.48 nM; in that of `COc1cc(C(=O)N2CCOCC2)c(F)cc1Nc1ncc(C(F)(F)F)c(NC(C)C)n1` [Compound 32, [2-Fluoro-4-(4-isopropylamino-5-trifluoromethyl-pyrimidin-2-ylamino)-5-methoxy-phenyl]-morpholin-4-yl-methanone], 3.49 nM.
For `CNc1nc(Nc2ccc(C(=O)N3CCOCC3)c(C)c2OC)ncc1C(F)(F)F` [Compound 33, [3-Methoxy-2-methyl-4-(4-methylamino-5-trifluoromethyl-pyrimidin-2-ylamino)-phenyl]-morpholin-4-yl-methanone], the affinity corresponds to a Ki of 114 nM.
Compound `CCNc1nc(Nc2cc(F)c(C(=O)N3CC4(CCO4)C3)cc2OC)ncc1C(F)(F)F` [Compound 34, [4-(4-Ethylamino-5-trifluoromethyl-pyrimidin-2-ylamino)-2-fluoro-5-methoxy-phenyl]-(1-oxa-6-aza-spiro[3.3]hept-6-yl)-methanone] registered a Ki of 1.3 nM.
Compound `CNc1nc(Nc2cc(F)c(C(=O)NCC(C)(C)O)cc2OC)ncc1C(F)(F)F` [Compound 35, 2-Fluoro-N-(2-hydroxy-2-methyl-propyl)-5-methoxy-4-(4-methylamino-5-trifluoromethyl-pyrimidin-2-ylamino)-benzamide] came in with a Ki of 4.36 nM.
Compound `CNc1nc(Nc2cc(F)c(C(=O)N3C[C@H](F)[C@@H](F)C3)cc2OC)ncc1C(F)(F)F` [Compound 36, ((3S,4S)-3,4-Difluoro-pyrrolidin-1-yl)-[2-fluoro-5-methoxy-4-(4-methylamino-5-trifluoromethyl-pyrimidin-2-ylamino)-phenyl]-methanone] gave a Ki of 4.42 nM.
In the case of `CCNc1nc(Nc2cc(F)c(C(=O)NC)cc2OC)ncc1C(F)(F)F` [Compound 37, 4-(4-Ethylamino-5-trifluoromethyl-pyrimidin-2-ylamino)-2-fluoro-5-methoxy-N-methyl-benzamide] it was 1.31 nM; in that of `CNc1nc(Nc2ccc(C(=O)NCC(C)(C)O)c(F)c2OC)ncc1C(F)(F)F` [Compound 38, 2-Fluoro-N-(2-hydroxy-2-methyl-propyl)-3-methoxy-4-(4-methylamino-5-trifluoromethyl-pyrimidin-2-ylamino)-benzamide], 11.6 nM.
In the case of `CNc1nc(Nc2cc(OC)c(C(=O)N3CCC(F)(F)C3)cc2OCCF)ncc1C(F)(F)F` [Compound 39, (3,3-Difluoro-pyrrolidin-1-yl)-[5-(2-fluoro-ethoxy)-2-methoxy-4-(4-methylamino-5-trifluoromethyl-pyrimidin-2-ylamino)-phenyl]-methanone] it was 1.46 nM; in that of `CNc1nc(Nc2cc(OC)c(C(=O)N3CC4(CCO4)C3)cc2Cl)ncc1C(F)(F)F` [Compound 40, [5-Chloro-2-methoxy-4-(4-methylamino-5-trifluoromethyl-pyrimidin-2-ylamino)-phenyl]-(1-oxa-6-aza-spiro[3.3]hept-6-yl)-methanone], 2.76 nM.
To `CCNc1nc(Nc2ccc(C(=O)N3CCOCC3)c(F)c2F)ncc1C(F)(F)F` [Compound 41, [4-(4-Ethylamino-5-trifluoromethyl-pyrimidin-2-ylamino)-2,3-difluoro-phenyl]-morpholin-4-yl-methanone] belongs 2.99 nM.
In the case of `COc1cc(C(=O)N2CCOCC2)c(C)cc1Nc1ncc(C(F)(F)F)c(NC2CC2)n1` [Compound 42, [4-(4-Cyclopropylamino-5-trifluoromethyl-pyrimidin-2-ylamino)-5-methoxy-2-methyl-phenyl]-morpholin-4-yl-methanone], the affinity, expressed as Ki, was 0.31 nM.
Take `CCNc1nc(Nc2cc(OC)c(C(=O)N3CC4(COC4)C3)cc2Cl)ncc1C(F)(F)F` [Compound 43, [5-Chloro-4-(4-ethylamino-5-trifluoromethyl-pyrimidin-2-ylamino)-2-methoxy-phenyl]-(2-oxa-6-aza-spiro[3.3]hept-6-yl)-methanone]: the inhibitory constant (Ki) stood at 0.832 nM.
Turning to `CCNc1nc(Nc2cc(C)c(C(=O)N3CCOCC3)cc2OC)ncc1C(F)(F)F` [Compound 44, [4-(4-Ethylamino-5-trifluoromethyl-pyrimidin-2-ylamino)-5-methoxy-2-methyl-phenyl]-morpholin-4-yl-methanone], the affinity corresponds to a Ki of 0.31 nM.
For `COc1cc(C(=O)NCC(C)(C)O)c(F)cc1Nc1ncc(C(F)(F)F)c(NC2CC2)n1` [Compound 45, 4-(4-Cyclopropylamino-5-trifluoromethyl-pyrimidin-2-ylamino)-2-fluoro-N-(2-hydroxy-2-methyl-propyl)-5-methoxy-benzamide], the Ki was found to be 0.31 nM.
In the case of `CCNc1nc(Nc2ccc(C(=O)NC(C)(C)C)cc2OC)ncc1C#N` [Compound 46, N-tert-Butyl-4-(5-cyano-4-ethylamino-pyrimidin-2-ylamino)-3-methoxy-benzamide] it was 3.03 nM; in that of `CNc1nc(Nc2ccc(C(=O)N3CCOCC3)cc2OC(F)F)ncc1C(F)(F)F` [Compound 47, [3-Difluoromethoxy-4-(4-methylamino-5-trifluoromethyl-pyrimidin-2-ylamino)-phenyl]-morpholin-4-yl-methanone], 5.98 nM.

(Values after patent publication US8809331B2 (Genentech, Inc., priority 2011, dated 2014).)
